Source: patent US20220054548A1, “MIRNA FOR USE IN THERAPY” (King's College London, priority 2018, published 2022)
“Also recorded” adds a separate entry of the source.

Legend:
TREG^Δ142 mice = test: In vivo cilostamide treatment of TREG^Δ142 mice (weight, survival); parameters: species or system mouse; details: 6.4 mg/kg intra-peritoneal cilostamide on alternate days from 8 weeks of age
Method: In vivo cilostamide treatment. Littermate TREG^Δ142 and WT mice were treated from 8 weeks of age with alternate day intra-peritoneal injections of either 6.4 mg/kg cilostamide (Sigma) in PBS 10% DMSO, or a control solution of PBS 10% DMSO. The mice were weighed every other day and monitored for signs of disease. A proportion of mice were sacrificed after 4 weeks of treatment and TREGS were isolated directly ex vivo for use in an in vitro co-culture suppression assay (as before). A proportion of mice were kept alive for as long as possible (either until they lost more than 15% of their body weight and had to be euthanised, or until the end of the experiment).

miR-142-deficient TREGS = test: Co-culture TREG suppression assay ex vivo after 4 weeks of in vivo cilostamide treatment; parameters: species or system mouse; details: TREGS isolated ex vivo after 4 weeks of cilostamide treatment
Description: In vitro Suppression Assay. CD4^+ T cells were isolated from pooled peripheral lymph nodes and spleens of 5-6 week old mice using CD4 microbeads (Miltenyi Biotec). Cells were labeled with fluorochrome-conjugated anti-mouse antibodies to CD4, CD62L, CD44 and CD25 (eBioscience) and sorted using a BD FACSAria II flow cytometric cell sorter (BD Biosciences) to >95% purity for YFP^+ CD4^+ cells (TREGS) and naïve (CD25−, CD62L+, CD44−) CD4+ T cells (TEFFS). An aliquot of the sorted TREG population was stained with Live-Dead and anti-CD25 antibodies, fixed and permeabilised, then stained for FoxP3 and acquired on a flow cytometer (as before) to confirm purity. […] After 72 hours in culture, the cells were stained with fluorochrome-conjugated anti-mouse antibodies to Live/Dead (Life Technologies) and then proliferation of the TEFFS was assessed by flow cytometry based on Cell Trace Violet dilution (excluding YFP+ and dead cells). The numbers of non-proliferating cells (events in the first peak) and precursors of proliferating cells were calculated using standard formulae. Percentage suppression (S) of proliferation was calculated using the formula: […]
In vivo cilostamide treatment. […] The mice were weighed every other day and monitored for signs of disease. […]

[1] = tested on: TREGS from WT and TREG^Δ142 mice; test: In vitro co-culture suppression assay after in vitro cilostamide treatment; format: cell-based, mouse
Description: In vitro Suppression Assay. CD4^+ T cells were isolated from pooled peripheral lymph nodes and spleens of 5-6 week old mice using CD4 microbeads (Miltenyi Biotec). Cells were labeled with fluorochrome-conjugated anti-mouse antibodies to CD4, CD62L, CD44 and CD25 (eBioscience) and sorted using a BD FACSAria II flow cytometric cell sorter (BD Biosciences) to >95% purity for YFP^+ CD4^+ cells (TREGS) and naïve (CD25−, CD62L+, CD44−) CD4+ T cells (TEFFS). An aliquot of the sorted TREG population was stained with Live-Dead and anti-CD25 antibodies, fixed and permeabilised, then stained for FoxP3 and acquired on a flow cytometer (as before) to confirm purity. The TEFFS were labeled with 10 μM Cell Trace Violet (Life Technologies) according to the manufacturer's instructions, washed and then cultured in a 96-well U-bottom plate alone or with TREGS at ratios ranging from (TEFF:TREG) 1:1 to 32:1, in triplicate, in the presence of anti-CD3 and anti-CD28 Dynabeads (Life Technologies) at a bead:cell ratio of 2:1, and RPMI 1640 cell culture medium (Gibco, Life Technologies) supplemented with 10% fetal calf serum, 50 μM 2-Mercapto-ethanol, […] L-glutamine, pyruvate, HEPES, non-essential amino acids and antibiotics at 37° C. 5% CO2. All 4 possible combinations of TREGS and TEFFS from each group were utilised. After 72 hours in culture, the cells were stained with fluorochrome-conjugated anti-mouse antibodies to Live/Dead (Life Technologies) and then proliferation of the TEFFS was assessed by flow cytometry based on Cell Trace Violet dilution (excluding YFP+ and dead cells). The numbers of non-proliferating cells (events in the first peak) and precursors of proliferating cells were calculated using standard formulae. Percentage suppression (S) of proliferation was calculated using the formula: […]
In vitro Cilostamide treatment. […] They were then cultured in the presence of 10 μM cilostamide (Sigma Aldrich), or equivalent PBS/DMSO control for 48 hours before being washed twice, counted and used in an in vitro co-culture suppression assay, as above. […]

CN(C(=O)CCCOc1ccc2[nH]c(=O)ccc2c1)C1CCCCC1 [cilostamide]
Lethal autoimmune disease (weight and survival) (TREG^Δ142 mice): prevented lethal autoimmune disease
Suppressive activity of miR-142-deficient TREGS (miR-142-deficient TREGS): fully restored suppressive activity
TREG suppressive function (suppression of TEFF proliferation) ([1]; TEFFS pre-treated with cilostamide): No rescue of suppressive function
TREG suppressive function (suppression of TEFF proliferation) ([1]; TREG^Δ142 TREGS pre-treated with cilostamide 10 μM prior to co-culture with untreated TEFFS in the absence of cilostamide): restored the suppressive function; also recorded: no significant difference
TREG suppressive capacity ([1]; WT TREGS treated with cilostamide in vitro, compared with WT TREGS): marginal augmentation of ex vivo suppressive capacity
